Source: patent publication US20060020004A1, “Isoxazolidine compounds for treatment of bacterial infections” (Infinity Pharmaceuticals, Inc., priority 2004, published 2006)
In brackets after ≈: the same amount, converted by molar mass.

Tests used:
[1] = system: Penicillin-res. S. pneumonia ATCC 700671; assay: MIC determination, PRSP; type: cell-based, Streptococcus pneumonia; details: ATCC 700671, 24 h; for MIC: Streptococcus pneumoniae
Experimental: (§1) Susceptibility testing for bacterial cultures is performed according to the National Council for Clinical Laboratory Standards (NCCLS) protocol M100-S12, “Performance Standards for Antimicrobial Susceptibility Testing.” The bacterial strains recommended by NCCLS were obtained from the American Type Culutre Collection (ATCC) (Table) and were maintained on Mueller Hinton (MHA) agar plates plus or minus 3% lysed horse blood (see Table). The bacteria were grown in Cation adjusted Mueller Hinton Broth (CaMHB) for liquid growth and susceptibility testing. S. cerevisiae (yeast) is grown in yeast peptone dextrose (YPD) media.
(§2) All bacterial cultures were grown at 37 degrees Celsius. Fresh colonies of S. aureus and MRSA were inoculated into liquid media and grown overnight and diluted the next day to grow to mid-log (Table 2). E. faecalis and S. pneumonia mid-log cultures were started directly from colony on plates. To attain mid-log growth, cultures were grown to an optical density (OD) at A590 of 0.2-0.8 (see Table 2) and then diluted to proper OD to obtain 5×10^5 cells/mL.
(§3) Diluted bacterial cultures are added to compound plates with compound diluted 2-fold from 100 μg/mL to 0.2 μg/mL final concentration in DMSO. Control antibiotics are also added: vancomycin, linezolid, and penicillin. In 384 well plates, 0.5 μL compound is added followed by addition of 50 μL of culture. DMSO alone is included as a control. Plates incubated at 37 degrees Celsius for 17-24 h.
(§4) Plates with cells mixed with compounds are incubated for 17 h for S. aureus and yeast, 24 h for MRSA, and all Enterococcus and Streptococcus strains. Yeast plates are incubated […].
(§5) Viability is determined by reading plates at A590 to determine optical density of treated and untreated cells and determining growth inhibition relative to controls.

[2] = system: Methicillin resistant S. aureus ATCC 33591; assay: MIC determination, MRSA; type: cell-based, Staphylococcus aureus; details: MRSA ATCC 33591, 24 h; for MIC: Staphylococcus aureus
Experimental: as §1, §2, §3, §4, §5

[3] = system: Staphylococcus aureus (Smith) ATCC 19636; assay: MIC determination, S. aureus; type: cell-based; details: S. aureus ATCC 19636, 17 h; for MIC: Staphylococcus aureus, ATCC19636
Experimental: as §1, §2, §3, §4, §5

[4] = system: Enterococcus faecalis ATCC 29212; assay: MIC determination, E. faecalis; type: cell-based; details: ATCC 29212, 24 h
Experimental: as §1, §2, §3, §4, §5

[5] = system: Streptococcus pneumonia ATCC 49619; assay: MIC determination, S. pneumonia; type: cell-based; details: for MIC S. pneuomiae: ATCC 49619, 24 h; for MIC: Streptococcus pneumoniae, ATCC49619, 24 h, read-out: MIC S. pneuomiae
Experimental: as §1, §2, §3, §4, §5

[6] = system: Van-intermediate E. faecalis ATCC 51299 / Van-resistant E. faecalis ATCC 700221; assay: MIC determination, VIRE/VRE; type: cell-based, Enterococcus faecalis; details: ATCC 51299 / 700221, 24 h
Experimental: The MICs were determined using a broth micro-dilution assay in accordance with that recommended by the National Committee for Clinical Laboratory Standards (NCCLS). The final bacterial inoculate contained approximately 5×10^5 cfu/mL and the plates were incubated at 35° C. for 18 h in ambient air (Streptococci in 5% CO2). The MIC was defined as the lowest drug concentration that prevented visible growth.
as §1, §2, §3, §4, §5

[7] = system: S. cerevisiae Δpdr5; assay: MIC determination, yeast; type: cell-based; details: YPD, 30 degrees Celsius
Experimental: as §1, §3
Yeast cultures are started from a fresh colony into YPD media and then diluted to OD of 0.002. Diluted yeast is added to compound plates as bacteria but incubated at 30 degrees Celsius for 17 h. Controls are amphotericin B and voriconazole.
as §4, §5

Row | SMILES | MIC PRSP [1] | MIC MRSA [2] | MIC S. aureus [3] | MIC E. faecalis [4] | MIC S. pneuomiae [5] | MIC VIRE/VRE [6] | MIC S. cerevisiae Δpdr5 [7] | MIC [1] | MIC [5] | MIC [2] | MIC [3] | MIC ([4]; Enterococcus faecalis, ATCC29212)
1 | CC(=O)c1ccc(-c2ccc(CN3OC(C(C)O)C(CO)C3C(=O)NCCc3c[nH]c4ccccc34)cc2)cc1 (stereo not shown) | * (the MIC is >90 μg/mL) | ** (the MIC is 5-90 μg/mL) | ** (the MIC is 5-90 μg/mL) | ** (the MIC is 5-90 μg/mL) | – | – | – | – | – | – | – | –
2 | Cc1ccc(CCc2ccc(CN3OC(C(C)O)C(CO)C3C(=O)NCCc3c[nH]c4ccccc34)cc2)cc1 (stereo not shown) | ** (the MIC is 5-90 μg/mL) | *** (the MIC is less than 5 μg/mL) | *** (the MIC is less than 5 μg/mL) | – | ** (the MIC is 5-90 μg/mL) | – | – | – | – | – | – | –
3 | CC(O)C1ON(CC2CCCCC2)C(C(=O)NCCc2c[nH]c3ccccc23)C1CO (stereo not shown) | * (the MIC is >90 μg/mL) | * (the MIC is >90 μg/mL) | ** (the MIC is 5-90 μg/mL) | ** (the MIC is 5-90 μg/mL) | – | – | – | – | – | – | – | –
4 | CC(O)C1ON(Cc2ccccc2)C(C(=O)NCCc2c[nH]c3ccccc23)C1CO (stereo not shown) | * (the MIC is >90 μg/mL) | ** (the MIC is 5-90 μg/mL) | ** (the MIC is 5-90 μg/mL) | ** (the MIC is 5-90 μg/mL) | * (the MIC is >90 μg/mL) | ** (the MIC is 5-90 μg/mL) | ** (the MIC is 5-90 μg/mL) | – | – | – | – | –
5 | CC(O)C1ON(Cc2ccc(C=Cc3ccc(C(F)(F)F)cc3)cc2)C(C(=O)NCCc2c[nH]c3ccccc23)C1CO (stereo not shown) | ** (the MIC is 5-90 μg/mL) | ** (the MIC is 5-90 μg/mL) | ** (the MIC is 5-90 μg/mL) | – | ** (the MIC is 5-90 μg/mL) | – | – | – | – | – | – | –
6 | Cc1ccc(C#Cc2ccc(CN3OC4CNCC4C3C(=O)NCCc3c[nH]c4ccccc34)cc2)cc1 (stereo not shown) | – | – | – | – | – | – | – | 5 to 90 µg/mL (≈ 9.91 to 178 µM) | 5 to 90 µg/mL (≈ 9.91 to 178 µM) | 5 to 90 µg/mL (≈ 9.91 to 178 µM) | 5 to 90 µg/mL (≈ 9.91 to 178 µM) | –
7 | CC(O)C1ON(Cc2ccc(CCc3ccc(Cl)cc3)cc2)C(C(=O)NCCc2c[nH]c3ccccc23)C1CO (stereo not shown) | ** (the MIC is 5-90 μg/mL) | ** (the MIC is 5-90 μg/mL) | ** (the MIC is 5-90 μg/mL) | – | ** (the MIC is 5-90 μg/mL) | – | – | – | – | – | – | –
8 | Cc1ccc(C=Cc2ccc(CN3OC(C(C)O)C(CO)C3C(=O)NCCc3c[nH]c4ccccc34)cc2)cc1 (stereo not shown) | ** (the MIC is 5-90 μg/mL) | ** (the MIC is 5-90 μg/mL) | ** (the MIC is 5-90 μg/mL) | – | ** (the MIC is 5-90 μg/mL) | – | – | – | – | – | – | –
9 | CCOCCCNC(=O)[C@H]1[C@@H](CO)[C@@H]([C@@H](C)O)ON1Cc1ccc(C#Cc2ccc(C)cc2)cc1 | – | – | – | – | – | – | – | 5 to 90 µg/mL (≈ 10.4 to 187 µM) | 5 to 90 µg/mL (≈ 10.4 to 187 µM) | – | 5 to 90 µg/mL (≈ 10.4 to 187 µM) | –
10 | CC(O)C1ON(Cc2ccc(-c3ccc(OC4CCCCO4)cc3)cc2)C(C(=O)NCCc2c[nH]c3ccccc23)C1CO (stereo not shown) | – | ** (the MIC is 5-90 μg/mL) | ** (the MIC is 5-90 μg/mL) | – | ** (the MIC is 5-90 μg/mL) | – | – | – | – | – | – | –
11 | Cc1ccc(C#Cc2ccc(CN3O[C@H]([C@@H](C)O)[C@H](CO)[C@@H]3C(=O)NCCCNC(=O)OC(C)(C)C)cc2)cc1 | – | – | – | – | – | – | – | 5 to 90 µg/mL (≈ 9.06 to 163 µM) | – | 5 to 90 µg/mL (≈ 9.06 to 163 µM) | 5 to 90 µg/mL (≈ 9.06 to 163 µM) | 5 to 90 µg/mL (≈ 9.06 to 163 µM)
12 | CC(O)C1ON(Cc2ccc(C=Cc3ccccc3)cc2)C(C(=O)NCCc2c[nH]c3ccccc23)C1CO (stereo not shown) [drawing 219] | ** (the MIC is 5-90 μg/mL) | ** (the MIC is 5-90 μg/mL) | *** (the MIC is less than 5 μg/mL) | * (the MIC is >90 μg/mL) | ** (the MIC is 5-90 μg/mL) | * (the MIC is >90 μg/mL) | – | – | – | – | – | –
13 | Cc1ccc(C#Cc2cccc(CN3OC(C(C)O)C(CO)C3C(=O)NCCc3c[nH]c4ccccc34)c2)cc1 (stereo not shown) | ** (the MIC is 5-90 μg/mL) | *** (the MIC is less than 5 μg/mL) | *** (the MIC is less than 5 μg/mL) | ** (the MIC is 5-90 μg/mL) | ** (the MIC is 5-90 μg/mL) | ** (the MIC is 5-90 μg/mL) | ** (the MIC is 5-90 μg/mL) | – | – | – | – | –
14 | Cc1ccc(C#Cc2ccc(CN3O[C@H]([C@@H](C)O)[C@H](CO)[C@@H]3CNCCc3c[nH]c4ccccc34)cc2)cc1.Cl | – | – | – | – | – | – | – | > 90 µg/mL | > 90 µg/mL | 5 to 90 µg/mL | 5 to 90 µg/mL | –
15 | CC(O)C1ON(Cc2cccc(C#Cc3ccc(Cl)cc3)c2)C(C(=O)NCCc2c[nH]c3ccccc23)C1CO (stereo not shown) | ** (the MIC is 5-90 μg/mL) | *** (the MIC is less than 5 μg/mL) | *** (the MIC is less than 5 μg/mL) | ** (the MIC is 5-90 μg/mL) | ** (the MIC is 5-90 μg/mL) | ** (the MIC is 5-90 μg/mL) | ** (the MIC is 5-90 μg/mL) | – | – | – | – | –
16 | Cc1ccc(C#Cc2ccc(CN3OC(C(C)O)C(CO)C3C(=O)NCCc3cnc[nH]3)cc2)cc1 (stereo not shown) | – | ** (the MIC is 5-90 μg/mL) | * (the MIC is >90 μg/mL) | – | * (the MIC is >90 μg/mL) | – | – | – | – | – | – | –
17 | Cc1ccc(C#Cc2ccc(CN3O[C@@H]([C@@H](C)O)[C@@H](CN(C)C)[C@H]3C(=O)NCCc3c[nH]c4ccccc34)cc2)cc1 | – | – | – | – | – | – | – | 5 to 90 µg/mL (≈ 8.85 to 159 µM) | – | < 5 µg/mL | < 5 µg/mL | –
18 | CC(O)C1ON(Cc2ccc(C#Cc3ccc(Cl)cc3)cc2)C(C(=O)NCCc2c[nH]c3ccccc23)C1CO (stereo not shown) | ** (the MIC is 5-90 μg/mL) | *** (the MIC is less than 5 μg/mL) | *** (the MIC is less than 5 μg/mL) | ** (the MIC is 5-90 μg/mL) | ** (the MIC is 5-90 μg/mL) | ** (the MIC is 5-90 μg/mL) | ** (the MIC is 5-90 μg/mL) | – | – | – | – | –
19 | O=C(NCCc1c[nH]c2ccccc12)C1C(CO)C(CO)ON1Cc1ccc(C#Cc2ccccc2)cc1 (stereo not shown) | ** (the MIC is 5-90 μg/mL) | ** (the MIC is 5-90 μg/mL) | ** (the MIC is 5-90 μg/mL) | – | – | – | – | – | – | – | – | –
20 | CC(O)C1ON(CCCCCCc2ccccc2)C(C(=O)NCCc2c[nH]c3ccccc23)C1CO (stereo not shown) | ** (the MIC is 5-90 μg/mL) | ** (the MIC is 5-90 μg/mL) | ** (the MIC is 5-90 μg/mL) | – | – | – | – | – | – | – | – | –
21 | Cc1ccc(C#Cc2ccc(CN3OC(CO)CC3C(=O)NCCc3c[nH]c4ccccc34)cc2)cc1 (stereo not shown) | – | – | – | – | – | – | – | 5 to 90 µg/mL (≈ 10.1 to 182 µM) | – | 5 to 90 µg/mL (≈ 10.1 to 182 µM) | 5 to 90 µg/mL (≈ 10.1 to 182 µM) | –
